Values joined by “and” are separate entries in the source; they are usually repeats but may differ in a detail not shown here. Identical values can stand only once.
Experiments:
α1a-AR = target: T1, α1a-AR (Homo sapiens, UniProt P35348); test: α1-Adrenergic receptor radio-ligand (125I-HEAT) binding assay, α1a subtype; conditions: COS-7 cell membranes transfected with α1a-AR, 125I-HEAT 50 pM; read-out: Receptor Binding, Ki α1a-AR
T1 construct: expressed in transfected cells; host or cells: COS-7
T1 sequence (P35348 1-466): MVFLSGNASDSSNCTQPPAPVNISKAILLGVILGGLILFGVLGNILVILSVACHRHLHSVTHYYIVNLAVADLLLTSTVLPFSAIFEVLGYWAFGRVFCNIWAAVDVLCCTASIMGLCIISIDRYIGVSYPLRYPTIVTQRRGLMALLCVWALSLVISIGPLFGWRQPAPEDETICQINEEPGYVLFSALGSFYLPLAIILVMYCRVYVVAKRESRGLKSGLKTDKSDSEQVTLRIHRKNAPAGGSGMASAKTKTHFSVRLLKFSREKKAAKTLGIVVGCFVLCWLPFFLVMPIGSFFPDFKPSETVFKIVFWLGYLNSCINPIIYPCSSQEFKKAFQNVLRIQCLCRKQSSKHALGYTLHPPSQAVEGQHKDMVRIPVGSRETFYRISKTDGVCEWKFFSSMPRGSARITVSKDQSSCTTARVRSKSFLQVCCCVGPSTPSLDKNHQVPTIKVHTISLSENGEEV
Summary of the method: (§1)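 Membranes from COS-7 cells transfected with a single α1-AR subtype, incubated 1 h at rt with 50 pM 125I-HEAT and compound (1 pM–10 µM, half-log steps, final) in Tris/EDTA/NaCl pH 7.4. Bound radioactivity collected by GF/C filtration and scintillation counting, triplicates; Ki derived.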

α1d-AR = target: T2, α1d-AR (Homo sapiens, UniProt P25100); test: α1-Adrenergic receptor radio-ligand (125I-HEAT) binding assay, α1d subtype; conditions: COS-7 cell membranes transfected with α1d-AR, 125I-HEAT 50 pM; read-out: Receptor Binding, Ki α1d-AR
T2 construct: expressed in transfected cells; host or cells: COS-7
T2 sequence (P25100 1-572): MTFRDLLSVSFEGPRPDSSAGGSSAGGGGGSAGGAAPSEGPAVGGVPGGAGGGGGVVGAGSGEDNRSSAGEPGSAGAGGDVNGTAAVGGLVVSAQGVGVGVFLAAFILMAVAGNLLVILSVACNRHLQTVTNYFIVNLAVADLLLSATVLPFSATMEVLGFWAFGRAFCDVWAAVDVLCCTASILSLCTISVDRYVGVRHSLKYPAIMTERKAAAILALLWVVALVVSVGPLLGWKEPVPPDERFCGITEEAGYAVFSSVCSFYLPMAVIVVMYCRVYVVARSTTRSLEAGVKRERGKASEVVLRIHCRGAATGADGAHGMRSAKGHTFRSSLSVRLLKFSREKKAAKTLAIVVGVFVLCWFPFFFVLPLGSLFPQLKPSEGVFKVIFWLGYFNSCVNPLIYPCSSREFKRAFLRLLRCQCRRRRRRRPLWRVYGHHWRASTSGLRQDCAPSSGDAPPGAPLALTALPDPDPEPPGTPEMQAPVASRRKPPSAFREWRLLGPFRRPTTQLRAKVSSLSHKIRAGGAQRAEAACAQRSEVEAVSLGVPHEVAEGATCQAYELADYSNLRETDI
Summary of the method: as §1

α1b-AR = target: T3, α1b-AR (Homo sapiens, UniProt P35368); test: α1-Adrenergic receptor radio-ligand (125I-HEAT) binding assay, α1b subtype; conditions: COS-7 cell membranes transfected with α1b-AR, 125I-HEAT 50 pM; read-out: Receptor Binding, Ki α1b-AR
T3 construct: expressed in transfected cells; host or cells: COS-7
T3 sequence (P35368 1-520): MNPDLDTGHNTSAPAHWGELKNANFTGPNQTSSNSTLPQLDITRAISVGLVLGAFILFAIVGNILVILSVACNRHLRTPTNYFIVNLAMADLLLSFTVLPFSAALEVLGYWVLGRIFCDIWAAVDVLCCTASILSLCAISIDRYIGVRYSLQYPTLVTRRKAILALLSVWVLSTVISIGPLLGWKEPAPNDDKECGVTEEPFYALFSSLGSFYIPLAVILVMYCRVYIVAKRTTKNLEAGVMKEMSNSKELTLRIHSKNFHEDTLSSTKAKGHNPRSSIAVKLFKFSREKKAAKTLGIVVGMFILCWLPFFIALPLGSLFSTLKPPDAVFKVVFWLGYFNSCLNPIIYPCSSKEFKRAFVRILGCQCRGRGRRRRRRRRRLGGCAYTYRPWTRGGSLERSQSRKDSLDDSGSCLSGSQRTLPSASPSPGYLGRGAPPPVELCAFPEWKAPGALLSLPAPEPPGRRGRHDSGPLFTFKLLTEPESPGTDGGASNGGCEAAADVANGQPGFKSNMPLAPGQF
Summary of the method: as §1

| Structure (SMILES) | Ki (α1a-AR) | Ki (α1d-AR) | Ki (α1b-AR) |
| --- | --- | --- | --- |
| COc1ccccc1C1CCN(Cc2cccc(C(=O)N3CCc4ccc(NCc5ccccc5F)cc43)c2)CC1 [Cpd 59, [6-(2-fluoro-benzylamino)-2,3-dihydro-indol-1-yl]-{3-[4-(2-methoxy-phenyl)-piperidin-1-ylmethyl]-phenyl}-methanone] | 8.3 nM | 1.1 nM | 101 nM |
| CC(C)Oc1ccccc1C1CCN(Cc2cccc(C(=O)N3CCc4ccc(NC(=O)Nc5c(F)cccc5F)cc43)c2)CC1 [Cpd 60, 1-(2,6-difluoro-phenyl)-3-(1-{3-[4-(2-isopropoxy-phenyl)-piperidin-1-ylmethyl]-benzoyl}-2,3-dihydro-1H-indol-6-yl)-urea] | 0.4 nM | 0.4 nM | 121 nM |
| COc1ccccc1C1CCN(Cc2cccc(C(=O)N3CCc4ccc(NS(=O)(=O)c5c(F)cccc5F)cc43)c2)CC1 [Cpd 61, 2,6-difluoro-N-(1-{3-[4-(2-methoxy-phenyl)-piperidin-1-ylmethyl]-benzoyl}-2,3-dihydro-1H-indol-6-yl)-benzenesulfonamide] | 15.5 nM | 2.1 nM | 152 nM |
| COc1ccccc1CN1CCN(Cc2cccc(C(=O)N3CCc4ccccc43)c2)CC1 [Cpd 64, (2,3-dihydro-indol-1-yl)-{3-[4-(2-methoxy-benzyl)-piperazin-1-ylmethyl]-phenyl}-methanone] | 105 nM | 101 nM | 146 nM |
| CC(C)COc1ccccc1N1CCN(Cc2cccc(C(=O)N3CCc4ccccc43)c2)CC1 [Cpd 65, (2,3-dihydro-indol-1-yl)-{3-[4-(2-isobutoxy-phenyl)-piperazin-1-ylmethyl]-phenyl}-methanone] | 65 nM | 42 nM | 909 nM |
| CC(C)Oc1ccccc1N1CCN(Cc2cccc(C(=O)N3CCc4cc(Br)ccc43)c2)CC1 [Cpd 66, (5-bromo-2,3-dihydro-indol-1-yl)-{3-[4-(2-isopropoxy-phenyl)-piperazin-1-ylmethyl]-phenyl}-methanone] | 1.3 nM | 0.3 nM | 82.8 nM |
| CC(C)Oc1ccccc1N1CCN(Cc2cccc(C(=O)N3CCc4cc(Cl)ccc43)c2)CC1 [Cpd 67, (5-chloro-2,3-dihydro-indol-1-yl)-{3-[4-(2-isopropoxy-phenyl)-piperazin-1-ylmethyl]-phenyl}-methanone] | 2.1 nM and 12 nM | 14.7 nM and 22 nM | 1140 nM and 1260 nM |
| CC(C)Oc1ccccc1N1CCN(Cc2cccc(C(=O)N3CCc4cc(F)ccc43)c2)CC1 [Cpd 68, (5-fluoro-2,3-dihydro-indol-1-yl)-{3-[4-(2-isopropoxy-phenyl)-piperazin-1-ylmethyl]-phenyl}-methanone] | 13 nM | 13 nM | 288 nM |
| CC(C)Oc1ccccc1N1CCN(Cc2cccc(C(=O)N3CCc4cc(S(=O)(=O)N(C)C)ccc43)c2)CC1 [Cpd 70, 1-{3-[4-(2-isopropoxy-phenyl)-piperazin-1-ylmethyl]-benzoyl}-2,3-dihydro-1H-indole-5-sulfonic acid dimethylamide] | 107 nM | 41 nM | 1760 nM |
| CC(C)Oc1ccccc1N1CCN(Cc2cccc(C(=O)N3CCc4cc(S(C)(=O)=O)ccc43)c2)CC1 [Cpd 71, {3-[4-(2-isopropoxy-phenyl)-piperazin-1-ylmethyl]-phenyl}-(5-methanesulfonyl-2,3-dihydro-indol-1-yl)-methanone] | 14 nM and 17.5 nM | 16 nM and 21 nM | 716 nM and 720 nM |
| CC(C)Oc1ccccc1N1CCN(Cc2cccc(C(=O)N3CCc4cc(-c5ccccc5)ccc43)c2)CC1 [Cpd 72, {3-[4-(2-isopropoxy-phenyl)-piperazin-1-ylmethyl]-phenyl}-(5-phenyl-2,3-dihydro-indol-1-yl)-methanone] | 15 nM | 46 nM | 154 nM |
| CC(C)Oc1ccccc1N1CCN(Cc2cccc(C(=O)N3CCc4ccc(NC(=O)Nc5c(F)cccc5F)cc43)c2)CC1 [Cpd 73, 1-(2,6-difluoro-phenyl)-3-(1-{3-[4-(2-isopropoxy-phenyl)-piperazin-1-ylmethyl]-benzoyl}-2,3-dihydro-1H-indol-6-yl)-urea] | 31 nM | 1.5 nM | 208 nM |
